Values of other authors as cited in patent US20260146084A1, “METHODS FOR TREATING MYELOFIBROSIS AND RELATED CONDITIONS” (Disc Medicine, Inc., priority 2019, published 2026).
Values belong to the compound of their own block, whether it stands above or below them.

Key:
[1] = tested on: pro-inflammatory cytokines; conditions: mouse models
JAK1 = JAK1 (Homo sapiens, UniProt P23458)
JAK2 = JAK2 (Homo sapiens, UniProt O60674)
[2] = molecular target: T1, ACVR1 (HJV signaling partner) (Homo sapiens, UniProt Q04771)
T1 sequence (Q04771 21-509): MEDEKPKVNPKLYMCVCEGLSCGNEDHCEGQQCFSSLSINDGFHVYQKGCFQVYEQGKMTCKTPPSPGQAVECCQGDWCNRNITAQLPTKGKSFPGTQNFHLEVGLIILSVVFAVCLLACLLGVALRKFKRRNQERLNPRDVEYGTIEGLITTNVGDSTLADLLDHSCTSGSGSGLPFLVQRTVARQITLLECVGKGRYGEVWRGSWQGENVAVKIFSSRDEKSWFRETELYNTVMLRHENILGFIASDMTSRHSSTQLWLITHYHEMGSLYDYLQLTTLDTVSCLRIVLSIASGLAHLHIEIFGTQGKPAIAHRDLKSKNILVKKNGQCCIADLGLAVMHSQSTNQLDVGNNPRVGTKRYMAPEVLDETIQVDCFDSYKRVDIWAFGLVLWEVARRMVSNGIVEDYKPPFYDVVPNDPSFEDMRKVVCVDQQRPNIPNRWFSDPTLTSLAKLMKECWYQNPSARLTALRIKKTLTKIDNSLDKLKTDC

JAK1, sequence (P23458 whole entry): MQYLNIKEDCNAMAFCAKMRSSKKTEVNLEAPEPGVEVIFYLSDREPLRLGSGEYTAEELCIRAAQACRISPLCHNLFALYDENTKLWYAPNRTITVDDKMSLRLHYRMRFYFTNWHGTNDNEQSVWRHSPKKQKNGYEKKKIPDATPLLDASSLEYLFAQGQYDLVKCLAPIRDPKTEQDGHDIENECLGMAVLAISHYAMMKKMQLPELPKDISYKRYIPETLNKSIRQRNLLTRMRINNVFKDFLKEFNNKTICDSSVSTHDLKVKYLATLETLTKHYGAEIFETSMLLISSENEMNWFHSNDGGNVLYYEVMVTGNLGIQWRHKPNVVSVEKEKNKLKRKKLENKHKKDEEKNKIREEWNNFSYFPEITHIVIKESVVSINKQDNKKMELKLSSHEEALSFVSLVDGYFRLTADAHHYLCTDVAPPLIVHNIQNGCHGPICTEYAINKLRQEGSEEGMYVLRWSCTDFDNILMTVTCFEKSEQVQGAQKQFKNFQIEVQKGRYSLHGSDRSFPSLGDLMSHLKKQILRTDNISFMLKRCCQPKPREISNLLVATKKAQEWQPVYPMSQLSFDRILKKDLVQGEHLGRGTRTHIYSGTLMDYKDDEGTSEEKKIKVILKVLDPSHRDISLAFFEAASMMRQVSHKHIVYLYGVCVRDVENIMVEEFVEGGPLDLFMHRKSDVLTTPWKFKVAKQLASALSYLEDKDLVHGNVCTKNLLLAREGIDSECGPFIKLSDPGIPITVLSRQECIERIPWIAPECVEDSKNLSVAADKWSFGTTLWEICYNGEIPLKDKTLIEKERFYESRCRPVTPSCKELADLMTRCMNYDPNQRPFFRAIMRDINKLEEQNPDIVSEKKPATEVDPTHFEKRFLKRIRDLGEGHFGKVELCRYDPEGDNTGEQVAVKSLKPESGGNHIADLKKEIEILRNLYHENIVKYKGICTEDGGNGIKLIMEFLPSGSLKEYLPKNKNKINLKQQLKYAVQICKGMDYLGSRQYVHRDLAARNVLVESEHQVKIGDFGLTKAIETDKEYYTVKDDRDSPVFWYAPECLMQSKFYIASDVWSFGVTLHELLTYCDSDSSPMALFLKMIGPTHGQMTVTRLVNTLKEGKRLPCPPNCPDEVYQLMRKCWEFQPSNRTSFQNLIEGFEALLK
JAK2, sequence (O60674 whole entry): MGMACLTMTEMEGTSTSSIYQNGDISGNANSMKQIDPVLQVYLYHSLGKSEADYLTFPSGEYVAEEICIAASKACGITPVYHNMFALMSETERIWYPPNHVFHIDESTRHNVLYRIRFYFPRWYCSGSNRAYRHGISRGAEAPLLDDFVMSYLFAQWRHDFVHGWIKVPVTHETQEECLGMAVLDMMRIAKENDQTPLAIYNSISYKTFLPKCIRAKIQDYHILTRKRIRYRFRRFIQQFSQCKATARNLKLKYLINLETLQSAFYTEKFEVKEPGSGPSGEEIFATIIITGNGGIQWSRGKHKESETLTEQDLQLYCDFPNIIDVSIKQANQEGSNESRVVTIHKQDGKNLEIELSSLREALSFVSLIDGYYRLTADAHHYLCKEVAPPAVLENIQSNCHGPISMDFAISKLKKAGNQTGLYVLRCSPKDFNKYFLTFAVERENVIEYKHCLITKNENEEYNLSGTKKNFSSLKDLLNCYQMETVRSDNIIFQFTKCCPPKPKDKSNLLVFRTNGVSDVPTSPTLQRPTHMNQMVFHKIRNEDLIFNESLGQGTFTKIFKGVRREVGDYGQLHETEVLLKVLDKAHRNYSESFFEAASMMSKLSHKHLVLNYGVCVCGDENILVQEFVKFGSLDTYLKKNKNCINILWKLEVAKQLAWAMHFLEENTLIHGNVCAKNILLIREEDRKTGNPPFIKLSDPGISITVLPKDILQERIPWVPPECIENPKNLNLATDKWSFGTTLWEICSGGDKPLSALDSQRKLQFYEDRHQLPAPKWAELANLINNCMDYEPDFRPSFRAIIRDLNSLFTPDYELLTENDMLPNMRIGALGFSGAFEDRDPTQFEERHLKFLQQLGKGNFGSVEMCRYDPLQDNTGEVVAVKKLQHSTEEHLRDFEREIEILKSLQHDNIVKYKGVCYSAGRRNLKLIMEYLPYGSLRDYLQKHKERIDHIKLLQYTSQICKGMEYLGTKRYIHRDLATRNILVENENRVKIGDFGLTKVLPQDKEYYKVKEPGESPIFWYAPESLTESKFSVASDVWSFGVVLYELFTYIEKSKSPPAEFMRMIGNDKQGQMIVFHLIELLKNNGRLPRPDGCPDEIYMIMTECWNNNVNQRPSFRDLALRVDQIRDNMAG

Compound: Cc1noc2c1-c1ccccc1C(c1ccc(Cl)cc1)=N[C@H]2CC(N)=O [CP-0610]
pro-inflammatory cytokines [1]: downregulated pro-inflammatory cytokines

effect on anemia (myelofibrosis patients): worsens anemia
Compound: Cc1cnc(Nc2ccc(OCCN3CCCC3)cc2)nc1Nc1cccc(S(=O)(=O)NC(C)(C)C)c1 [Fedratinib]

effect on anemia (myelofibrosis patients): improves anemia
inhibition of JAK1 (JAK1): inhibits
inhibition of JAK2 (JAK2): inhibits
inhibition of ACVR1 [2]: inhibits
Compound: N#CCNC(=O)c1ccc(-c2ccnc(Nc3ccc(N4CCOCC4)cc3)n2)cc1 [Momelotinib]
effect on splenomegaly and disease symptoms (myelofibrosis patients): improving disease symptoms

effect on anemia (myelofibrosis patients): worsens anemia
Compound: N#CC[C@H](C1CCCC1)n1cc(-c2ncnc3[nH]ccc23)cn1 [ruxolitinib]
